{"source": "patent US11598778B2", "about": "“Method for diagnosis, prognosis and determination of treatment for cutaneous t-cell lymphoma” (UNIVERSITY OF PITTSBURGH—OF THE COMMONWEALTH SYSTEM OF …, priority 2013, dated 2023)", "assay_type_in_all_cases": "cell-based, human", "key": {"PLS3": {"test_system": "PLS3", "test": "qRT-PCR of PLS3 gene expression in cultured PBMCs after drug treatment", "details": "isolated PBMCs, 48 hours of incubation with treatment; 4 μM romidepsin or 20 uM pralatrexate; romidepsin p<0.05; FIG. 5B", "experimental": "(§1) Isolated PBMCs were cultured overnight and the next day divided into two treatment groups: 4 μM romidepsin and 20 uM pralatrexate. Each treatment was added 24 hours following culture initiation and was replaced along with fresh media 24 hours after initial treatment. After 48 hours of incubation with treatment, RNA was isolated from treated cells using RNAprotect and RNeasy (Qiagen, Valencia, Calif.) per manufacturer's instructions. For cDNA synthesis, total RNA (100 ng) was used for Reverse Transcription (RT) with Superscript II reverse transcriptase (Life Technologies, Gaithersburg, Md.) using oligo dT primers according to the recommendations of the manufacturer. 2 ul of the resulting cDNA was used for each PCR reaction. Quantitative reverse transcription PCR was performed using TaqMan PCR master mix (Applied Biosystems, Foster City, Calif.) together with TaqMan probes and primers (Applied Biosystems) using standard conditions. Expression of TOX, PLS3 and […] genes were measured in this way."}, "RUNX3": {"test_system": "RUNX3", "test": "qRT-PCR of RUNX3 gene expression in cultured PBMCs after drug treatment", "details": "isolated PBMCs, 48 hours of incubation with treatment; 4 μM romidepsin or 20 uM pralatrexate; romidepsin p<0.05; FIG. 5C", "experimental": "as §1"}, "TOX": {"test_system": "TOX", "test": "qRT-PCR of TOX gene expression in cultured PBMCs after drug treatment", "details": "isolated PBMCs, 48 hours of incubation with treatment; 4 μM romidepsin or 20 uM pralatrexate; romidepsin p<0.05; FIG. 5A", "experimental": "as §1"}}, "data": [{"smiles": "C#CCC(Cc1cnc2nc(N)nc(N)c2n1)c1ccc(C(=O)N[C@@H](CCC(=O)O)C(=O)O)cc1", "note": "(stereo partly drawn) [pralatrexate]", "values": [{"measurement": "gene expression of PLS3", "setting": "PLS3", "result": "did not result in altered gene expression"}, {"measurement": "expression of RUNX3", "setting": "RUNX3", "result": "did not result in altered gene expression"}, {"measurement": "gene expression of TOX", "setting": "TOX", "result": "did not result in altered gene expression"}]}]}
